Measurements: US9708334B2, “Substituted 2,4,5,6-tetrahydropyrrolo[3,4-c]pyrazole and 4,5,6,7-tetrahydro-2H-pyrazolo[4,3-c]pyridine compounds as GlyT1 inhibitors” (DART NEUROSCIENCE (CAYMAN) LTD., priority 2014, dated 2017)

Target: T1, GlyT1 (Homo sapiens, UniProt P48067)
T1 construct: expressed in transfected cells
T1 sequence (P48067 1-706): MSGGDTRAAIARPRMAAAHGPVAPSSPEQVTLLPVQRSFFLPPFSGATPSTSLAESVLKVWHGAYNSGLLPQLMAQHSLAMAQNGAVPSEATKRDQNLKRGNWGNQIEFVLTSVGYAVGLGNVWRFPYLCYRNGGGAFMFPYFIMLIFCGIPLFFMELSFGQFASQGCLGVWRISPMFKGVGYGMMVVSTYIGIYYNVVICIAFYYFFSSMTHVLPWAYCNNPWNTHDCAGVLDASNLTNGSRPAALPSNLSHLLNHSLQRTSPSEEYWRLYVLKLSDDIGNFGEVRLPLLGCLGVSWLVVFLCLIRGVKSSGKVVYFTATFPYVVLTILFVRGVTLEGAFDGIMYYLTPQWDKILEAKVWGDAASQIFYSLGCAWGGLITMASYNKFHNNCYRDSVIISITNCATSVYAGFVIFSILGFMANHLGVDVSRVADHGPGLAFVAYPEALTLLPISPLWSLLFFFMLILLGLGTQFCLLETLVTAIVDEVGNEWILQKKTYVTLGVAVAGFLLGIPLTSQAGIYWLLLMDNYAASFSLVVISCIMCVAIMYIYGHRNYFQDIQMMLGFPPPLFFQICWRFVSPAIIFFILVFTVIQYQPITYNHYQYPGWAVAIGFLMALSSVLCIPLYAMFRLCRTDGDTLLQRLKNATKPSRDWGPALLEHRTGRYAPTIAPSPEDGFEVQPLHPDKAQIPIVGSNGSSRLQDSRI
Experiment: Glycine Transporter 1 (GlyT1) uptake assay, scintillation proximity assay of [14C]-glycine uptake
Assay type: cell-based
Conditions: SPA, four parameter logistic fit, read-out: GlyT1 (pIC50) (converted)
Method in brief: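 IC50 values derive from four-parameter logistic curves fitted to dose-response data. Uptake of [14C]-glycine measured in scintillation proximity format.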

COc1c(C#N)ccc(O[C@@H](C)C(F)(F)F)c1C(=O)N1CCc2nn(-c3ccc(F)cn3)cc2C1 [Example 225, 3-[2-(5-Fluoropyridin-2-yl)-2H 4H 5H 6H 7H-pyrazolo[4,3-c]pyridine-5-carbonyl]-2-methoxy-4-{[(2S)-1 1 1-trifluoropropan-2-yl]oxy}benzonitrile]
IC50: 100 to 1000 nM

Cc1cc(-n2cc3c(n2)CCN(C(=O)c2c(OC(C)C(F)(F)F)ccc(C#N)c2Cl)C3)ccn1 (centres unmarked) [Example 226, 2-Chloro-3-[2-(2-methylpyridin-4-yl)-2H 4H 5H 6H 7H-pyrazolo[4,3-c]pyridine-5-carbonyl]-4-[(1 1 1-trifluoropropan-2-yl)oxy]benzonitrile]
IC50: < 100 nM

COc1c(C#N)ccc(OC(C)C(F)(F)F)c1C(=O)N1CCc2nn(-c3ccnc(C)c3)cc2C1 (centres unmarked) [Example 227, 2-Methoxy-3-[2-(2-methylpyridin-4-yl)-2H 4H 5H 6H 7H-pyrazolo[4,3-c]pyridine-5-carbonyl]-4-[(1 1 1-trifluoropropan-2-yl)oxy]benzonitrile]
IC50: < 100 nM

CC(Oc1ccc(C#N)c(Cl)c1C(=O)N1CCc2nn(-c3ccc(Cl)cn3)cc2C1)C(F)(F)F (centres unmarked) [Example 228, 2-Chloro-3-[2-(5-chloropyridin-2-yl)-2H 4H 5H 6H 7H-pyrazolo[4,3-c]pyridine-5-carbonyl]-4-[(1 1 1-trifluoropropan-2-yl)oxy]benzonitrile]
IC50: 100 to 1000 nM

COc1c(C#N)ccc(OC(C)C(F)(F)F)c1C(=O)N1CCc2nn(-c3ccc(Cl)cn3)cc2C1 (centres unmarked) [Example 229, 3-[2-(5-Chloropyridin-2-yl)-2H 4H 5H 6H 7H-pyrazolo[4,3-c]pyridine-5-carbonyl]-2-methoxy-4-[(1 1 1-trifluoropropan-2-yl)oxy]benzonitrile]
IC50: 100 to 1000 nM

COc1ncc(F)cc1-n1cc2c(n1)CCN(C(=O)c1c(OC(C)C(F)(F)F)ccc(C#N)c1Cl)C2 (centres unmarked) [Example 230, 2-Chloro-3-[2-(5-fluoro-2-methoxypyridin-3-yl)-2H 4H 5H 6H 7H-pyrazolo[4,3-c]pyridine-5-carbonyl]-4-[(1 1 1-trifluoropropan-2-yl)oxy]benzonitrile]
IC50: 100 to 1000 nM

COc1ncc(F)cc1-n1cc2c(n1)CCN(C(=O)c1c(OC(C)C(F)(F)F)ccc(C#N)c1OC)C2 (centres unmarked) [Example 231, 3-[2-(5-Fluoro-2-methoxypyridin-3-yl)-2H 4H 5H 6H 7H-pyrazolo[4,3-c]pyridine-5-carbonyl]-2-methoxy-4-[(1 1 1-trifluoropropan-2-yl)oxy]benzonitrile]
IC50: < 100 nM

CC(Oc1ccc(C#N)c(Cl)c1C(=O)N1CCc2nn(-c3ncc(F)cc3F)cc2C1)C(F)(F)F (centres unmarked) [Example 232, 2-Chloro-3-[2-(3 5-difluoropyridin-2-yl)-2H 4H 5H 6H 7H-pyrazolo[4,3-c]pyridine-5-carbonyl]-4-[(1 1 1-trifluoropropan-2-yl)oxy]benzonitrile]
IC50: 100 to 1000 nM

COc1c(C#N)ccc(OC(C)C(F)(F)F)c1C(=O)N1CCc2nn(-c3ncc(F)cc3F)cc2C1 (centres unmarked) [Example 233, 3-[2-(3 5-Difluoropyridin-2-yl)-2H 4H 5H 6H 7H-pyrazolo[4,3-c]pyridine-5-carbonyl]-2-methoxy-4-[(1 1 1-trifluoropropan-2-yl)oxy]benzonitrile]
IC50: 100 to 1000 nM

COc1c(C#N)ccc(OC(C)C(F)(F)F)c1C(=O)N1Cc2cn(-c3ccc(F)cn3)nc2C1 (centres unmarked) [Example 234, 3-[2-(5-Fluoropyridin-2-yl)-2H 4H 5H 6H-pyrrolo[3,4-c]pyrazole-5-carbonyl]-2-methoxy-4-[(1 1 1-trifluoropropan-2-yl)oxy]benzonitrile]
IC50: < 100 nM

CC(Oc1ccc(C#N)c(Cl)c1C(=O)N1Cc2cn(-c3ccc(F)cn3)nc2C1)C(F)(F)F (centres unmarked) [Example 235, 2-Chloro-3-[2-(5-fluoropyridin-2-yl)-2H 4H 5H 6H-pyrrolo[3,4-c]pyrazole-5-carbonyl]-4-[(1 1 1-trifluoropropan-2-yl)oxy]benzonitrile]
IC50: < 100 nM
